The source of these data is patent publication US20040102454A1, “Phenylahistin and the phenylahistin analogs, a new class of anti-tumor compounds” (priority 1998, published 2004).

Assay [1] has as its system Microtubule protein from bovine brain. In words: Microtubule protein polymerization assay (turbidity). The assay is classed as biochemical. Here is the method:
Microtubule protein was prepared from bovine brain tissue by two cycles of assembly and disassembly according to the method of Tiwari, S. C. et al. Anal. Biochem, (1993), 215, 96-103. Tubulin was purified from microtubule protein by phosphocellulose chromatography see Algaier, J. et al. Biochim. Biophys. Acta, (1988), 954, 235-43, and tubulin purity was evaluated by polyacrylamide gel electrophoresis, as in Laemmli, U.K., Nature, (1970), […], 680-85. […] Protein concentrations were determined using the Coomassie® Protein Assay Reagent from Pierce (Rockford, Ill.).
Polymerization of microtubule protein was monitored by an increase in turbidity at 37° C. in microtubule assembly buffer containing 100 mM MES, 0.5 mM MgCl2, 1 mM EGTA and 1 mM GTP. See Johnson, K. A. et al., J. Mol. Biol., (1977), 117, 1-31. Polymerization of purified tubulin was measured using the same method except the microtubule assembly buffer contained 4 M glycerol. See Lee, J. C. et al., Biochemistry, (1975), 14, 5183-87. Microtubule protein and tubulin polymerization was initiated by a temperature shift from 0° C. to 37° C. and turbidity was measured on a DU-20 thermocontrolled spectrophotometer from Beckman (Fullerton, Calif.) at 360 nm. Drugs were dissolved in dimethyl sulfoxide (DMSO), which was used in all experiments at a final concentration of 2% (v/v).
For this example, the microtubule protein polymerization assay was performed as follows. Microtubule protein was prepared from bovine brain tissue by two cycles of assembly and disassembly. Polymerization of microtubule protein was monitored by an increase in turbidity at 37° C. in microtubule assembly buffer containing 100 mM MES, 0.5 mM MgCl2, 1 mM EGTA and 1 mM GTP. The polymerization of microtubule protein was initiated by a temperature shift from 0° C. to 37° C. Turbidity was measured on a thermo-controlled spectrophotometer (Beckman DU-20, Fullerton, Calif.) at 360 nm. Compounds were dissolved in DMSO, which was used in all experiments at a final concentration of 2% (v/v).

In assay [2] the test system is P388 cells. In words: P388 proliferation, Alamar Blue assay. Type of assay: cell-based, murine. Here is the method:
For this example, the Alamar Blue™ assay was performed as follows. Exponentially growing P388 cells were seeded into 96-well tissue culture plates (5×10^3 cells/100 μl/well) and cultured in RPMI 1640 medium supplemented with 10% fetal bovine serum for 16 h. Compounds (DMSO solution) were then added to each well at various concentrations, and the cells were cultured for an additional 48 h. Living cells were counted using Alamar Blue™ (BioSource International, Camarillo, Calif.), according to the method of Ahmed, S. A. et al., J. Immunol. Methods, 170, 211 (1994).
On the technique in general: Alamar Blue is a resazurin reagent that responds to reducing activity.

Assay [3] has as its system MES-SA DX (Taxol Resistant) human uterine sarcoma tumor cell line. In words: Drug resistant cell line pair, cytotoxicity. The assay is classed as cell-based. From the text:
MES-SA (Taxol Sensitive) and MES-SA DX (Taxol Resistant). This cell line expresses elevated mdr-1 mRNA and P-glycoprotein (an extrusion pump mechanism). Pretreatment with cyclosporin-A (CsA) blocks P-glycoprotein and reinstates activity in the resistant cell line for those compounds for which the resistance is due to elevated P-glycoprotein.

For assay [4], the system named is HT-29 human colon tumor. The experiment in a line: HT-29 Human Colon Tumor Xenograft Model. Type of assay: in vivo, nude mice. The settings on record: CPT-11 100 ip qwx3 alone; study 2139. Here is the method:
Animals used were (exceptions are indicated for individual studies): female nude mice (nu/nu) between 5 and 6 weeks of age (˜20 g, Harlan); group size was 9-10 mice per group unless otherwise indicated. The selected novel compound was administered as monotherapy via the intraperitoneal (i.p.) route at the doses indicated for the individual study; for the combination studies the selected reference chemotherapy agents were injected 15-30 min prior to the compound. Vehicles used in these studies were: 12.5% DMSO, 5% Cremaphor and 82.5% peanut oil for the selected novel compounds; (1:3) Polysorbate 80:13% ethanol for taxotere; […] Saline dilutions are used to achieve the injection concentrations used for the reference compounds. Animals were implanted subcutaneously (s.c.) by trocar with fragments of HT-29 tumors harvested from s.c. growing tumors in nude mice hosts. […] CPT-11 was administered intraperitoneally on days 1, 8 and 15 (qw×3).
(In general: A xenograft is tissue or cells of one species grown in another, often human tumour cells in immunodeficient mice.)

In assay [5] the test system is C. glabrata. The experiment in a line: Antifungal susceptibility testing, broth dilution (NCCLS M38-A). The assay is classed as cell-based, Candida glabrata. Here is the method: (§1) Antifungal susceptibility testing was accomplished according to the methods outlined in the National Committee for Clinical Laboratory Standards, M38-A “Reference Method for Broth Dilution Antifungal Susceptibility Testing of Conidium-Forming Filamentous Fungi; Approved Standard.” This includes testing in RPMI-1640 with glutamine and without bicarbonate, an inoculum size of 0.4-5×10^4, and incubation at 30 or 35° C. for 48 hours. […] Drug concentrations were 0.03-16 μg/ml for the investigational compounds, 0.015-8 μg/ml for itraconazole and griseofulvin.
(§2) The minimum lethal concentration (MLC) was determined by plating […] from the MIC concentration and each concentration above the MIC. […] When a MIC was obtained, a minimum fungicidal concentration (MFC) was determined to assess the fungistatic/fungicidal nature of the compound. […] The compound is scored as fungistatic if the cells are able to resume growth and fungicidal if no regrowth is possible because the compound had killed the organisms.
A general note: Broth dilution looks for growth in wells or tubes with falling amounts of substance.

Assay [6] concerns C. albicans 10231. The assay is described as above. Type of assay: cell-based, Candida albicans. Here is the method:
as §1, §2

Assay [7] deals with C. albicans 90028. The description is as above. The assay is classed as cell-based, Candida albicans. Here is the method: as §1, §2
Assay [8] has as its system microtubules in A549 cells. In words: Immunofluorescence staining of microtubules. Type of assay: cell-based, human. The settings on record: 6 hours incubation. Here is the method: Immunocytochemical staining was performed using the method described by Yahara, I. et al., Cell (1978) 15, 251-259. A549 cells were cultured on glass coverslips and incubated with the test drug for 6 hours. The cells were then fixed with 3.7% formaldehyde for 30 min, permeabilized with 0.2% Triton X-100 for 5 min, and incubated with a mouse monoclonal antibody against α-tubulin (Calbiochem®, Oncogene Research Products, Cambridge, Mass.), followed by incubation with fluorescein isothiocyanate-conjugated goat anti-mouse IgG from Cosmo Bio Co., (Tokyo, Japan), and the cells were examined under an immunofluorescent microscope.

The mark [9] stands for this setting: microtubule protein 1.5 mg/mL (Table 9), read-out: IC50 Microtubule Protein polymerization.
Setting [10] is: microtubule protein 1.5 mg/ml (Table 4), read-out: IC50 for Microtubule Protein Polymerization.
Setting [11] is: Alamar Blue assay (Table 4), read-out: IC50 for P388 Proliferation.
The mark [12] stands for this setting: means (±SEM) of three experiments (Table 9), read-out: IC50 P388 proliferation.
[13] abbreviates: Mus musculus, P388, means (±SEM) of three experiments (Table 9), read-out: IC50 P388 proliferation.

In brackets after ≈: the same amount, converted by molar mass. Counter-ions that a name gives are not always drawn. Like-named read-outs stand apart in the source and are kept apart here. Where only a bound is given, the exact number is not on record here.

For the compound `O=C1N[C@@H](Cc2cnc[nH]2)C(=O)N[C@H]1Cc1ccccc1` [Cyclo-His-Phe, reference compound], the IC50 in assay [1] (setting [9]), in assay [1] (setting [10]), in assay [2] (setting [11]) and in assay [2] (setting [12]) was more than 200 µM in each case.
Take `C=CC(C)(C)c1c(C=C2C(=O)N(C)[C@@H](Cc3ccccc3)C(=O)N2C)ncn1C` [Compound 15, (−)-Cyclo-N, N′-dimethyl-[(N^im-methyl-5-(1,1-dimethyl-2-propenyl))dehydro-histidinyl-L-phenylalanine]]: the IC50 in assay [1] (setting [9]) is more than 200 µM; in assay [2] (setting [12]), 160 µM.
As to “(−)-Cyclo-[5-(1,1-dimethylpropyl)histidinyl-L-phenylalanine] [Compound 5]”, the IC50 in assay [1] (setting [9]), in assay [1] (setting [10]), in assay [2] (setting [11]) and in assay [2] (setting [12]) was more than 200 µM in each case.
For `O=C1NC(Cc2ccccc2)C(=O)NC1=Cc1c[nH]cn1` [Compound 19, Cyclo-[dehydrohistidinyl-L-phenylalanine]], the “inhibition percentage at 200 μM, microtubule protein polymerization” value (“inhibition percentage at 200 μM” below) in assay [1] was 11%. In addition, the IC50 in assay [1] (setting [9]) and in assay [2] (setting [13]) was more than 200 µM in each case.
For the compound `C=CC(C)(C)c1c(/C=C2\NC(=O)[C@H](Cc3ccccc3)NC2=O)ncn1C` [Compound 14, (−)-Cyclo-[(N^im-methyl-5-(1,-dimethyl-2-propenyl))dehydrohistidinyl-L-phenylalanine]], the “times less active than (−)-phenylahistin” value in assay [1] is listed as “about 5 times”. Moreover, the figures for the IC50 in assay [1] (setting [9]) and in assay [2] (setting [13]) were 100 µM and 0.95 µM, respectively.
“(+)-Cyclo-[5-(1,1-dimethylpropyl)dehydrohistidinyl-L-phenylalanine] [Compound 4]”: the “inhibition percentage at 200 μM” value in assay [1] came out at 12%. Besides, the IC50 is more than 200 µM in assay [1] (setting [9]), more than 200 µM in assay [1] (setting [10]), 19 µM in assay [2] (setting [11]) and 19 µM in assay [2] (setting [12]).
As for `COc1cc([C@@H]2c3cc4c(cc3[C@@H](O[C@@H]3O[C@@H]5CO[C@@H](C)O[C@H]5[C@H](O)[C@H]3O)[C@H]3COC(=O)[C@H]23)OCO4)cc(OC)c1O` [etoposide, reference compound], the “reduced susceptibility of the MES-SA DX cell line” value in assay [3] is on record as 60 fold.
As for “(−)-Cyclo-[5-(1,1-dimethylpropyl)dehydrohistidinyl-L-phenylalanine] [Compound 3]”, the IC50 in assay [1] (setting [9]) was 30 µM; in assay [1] (setting [10]), 30 µM; in assay [2] (setting [11]), 0.23 µM; in assay [2] (setting [12]), 0.23 µM.
Take `Cc1[nH]cnc1C=C1NC(=O)[C@H](Cc2ccccc2)NC1=O` [Compound 20, Cyclo-[(5-methyl)dehydrohistidinyl-L-phenylalanine]]: the “inhibition percentage at 200 μM” value in assay [1] worked out at 9%. Further, the IC50 in assay [1] (setting [9]) was more than 200 µM; in assay [2] (setting [12]), 15 µM.
As to `CCc1c2c(nc3ccc(OC(=O)N4CCC(N5CCCCC5)CC4)cc13)-c1cc3c(c(=O)n1C2)COC(=O)[C@]3(O)CC` [CPT-11, irinotecan hydrochloride, reference compound], the “Chemotherapeutic Agent Result TGI %” value in assay [4] stood at 32.7%.
In the case of `COc1cccc2c1C(=O)c1c(O)c3c(c(O)c1C2=O)C[C@@](O)(C(=O)CO)C[C@@H]3O[C@H]1C[C@H](N)[C@H](O)[C@H](C)O1` [doxorubicin, reference compound], the “reduced susceptibility of the MES-SA DX cell line” value in assay [3] amounted to 34 fold.
As to `C[C@@H]1[C@H](O)[C@@H](C)/C=C/C=C/C=C/C=C/C=C/C=C/C=C/[C@H](O[C@@H]2O[C@H](C)[C@@H](O)[C@H](N)[C@@H]2O)C[C@@H]2O[C@](O)(C[C@@H](O)C[C@@H](O)[C@H](O)CC[C@@H](O)C[C@@H](O)CC(=O)O[C@H]1C)C[C@H](O)[C@H]2C(=O)O` [amphotericin B], the minimum fungicidal concentration (MFC) (commonly the smallest concentration meeting the test's criterion for killing the fungus) was determined as 1 µg/mL (≈ 1.08 µM) in assay [5] (C. glabrata), 0.5 µg/mL (≈ 0.541 µM) in assay [6] (C. albicans 10231) and 0.5 µg/mL (≈ 0.541 µM) in assay [7] (C. albicans 90028). Also, the MIC – broadly, the lowest concentration that inhibits growth of the organism – in assay [5] (C. glabrata, 80% reduction in turbidity) amounted to 1 µg/mL (≈ 1.08 µM); in assay [6] (C. albicans 10231, 80% reduction in turbidity), 0.5 µg/mL (≈ 0.541 µM); in assay [7] (C. albicans 90028, 80% reduction in turbidity) it was 0.5 µg/mL (≈ 0.541 µM).
For the compound `O=C1CNC(=O)C(Cc2ccccc2)N1` [Compound 7, Cyclo-[glycinyl-L-phenylalanine]], the IC50 is more than 200 µM in assay [1] (setting [10]) and more than 200 µM in assay [2] (Mus musculus, P388, Alamar Blue assay (Table 4), read-out: IC50 for P388 Proliferation).
Regarding `COc1cc2c(c(OC)c1OC)-c1ccc(OC)c(=O)cc1[C@@H](NC(C)=O)CC2` [colchicine], the MIC in assay [5] (Nakaseomyces glabratus) is more than 128 µg/mL; in assay [6] (Candida albicans, 10231), more than 128 µg/mL; in assay [7] (Candida albicans, 90028), more than 128 µg/mL. In addition, the “microtubule structure (anti α-tubulin staining)” value in assay [8] is recorded as “staining profile similar to that of (−)-PLH-treated cells”.
On to `CCCCNC(=O)n1c(NC(=O)OC)nc2ccccc21` [benomyl], for which the MIC in assay [5] (Nakaseomyces glabratus, C. glabrata, 80% reduction in turbidity, read-out: MIC) was found to be 64 µg/mL (≈ 220 µM); in assay [6] (Candida albicans, C. albicans 10231, 80% reduction in turbidity, read-out: MIC), 64 µg/mL (≈ 220 µM); in assay [7] (Candida albicans, C. albicans 90028, 80% reduction in turbidity, read-out: MIC) it was 64 µg/mL (≈ 220 µM). Further, the MFC in assay [5] (Nakaseomyces glabratus, C. glabrata, read-out: MFC) was more than 512 µg/mL; in assay [6] (Candida albicans, C. albicans 10231, read-out: MFC) it was more than 512 µg/mL; in assay [7] (Candida albicans, C. albicans 90028, read-out: MFC), more than 512 µg/mL.
Regarding “(+)-Cyclo-[5-(1,1-dimethylpropyl)histidinyl-L-phenylalanine] [Compound 6]”, the IC50 in assay [1] (setting [9]), in assay [1] (setting [10]), in assay [2] (setting [11]) and in assay [2] (setting [12]) was more than 200 µM in each case.
